The target in the test is T1, SIRT1 (Homo sapiens, UniProt Q96EB6).
T1 sequence (Q96EB6 1-747): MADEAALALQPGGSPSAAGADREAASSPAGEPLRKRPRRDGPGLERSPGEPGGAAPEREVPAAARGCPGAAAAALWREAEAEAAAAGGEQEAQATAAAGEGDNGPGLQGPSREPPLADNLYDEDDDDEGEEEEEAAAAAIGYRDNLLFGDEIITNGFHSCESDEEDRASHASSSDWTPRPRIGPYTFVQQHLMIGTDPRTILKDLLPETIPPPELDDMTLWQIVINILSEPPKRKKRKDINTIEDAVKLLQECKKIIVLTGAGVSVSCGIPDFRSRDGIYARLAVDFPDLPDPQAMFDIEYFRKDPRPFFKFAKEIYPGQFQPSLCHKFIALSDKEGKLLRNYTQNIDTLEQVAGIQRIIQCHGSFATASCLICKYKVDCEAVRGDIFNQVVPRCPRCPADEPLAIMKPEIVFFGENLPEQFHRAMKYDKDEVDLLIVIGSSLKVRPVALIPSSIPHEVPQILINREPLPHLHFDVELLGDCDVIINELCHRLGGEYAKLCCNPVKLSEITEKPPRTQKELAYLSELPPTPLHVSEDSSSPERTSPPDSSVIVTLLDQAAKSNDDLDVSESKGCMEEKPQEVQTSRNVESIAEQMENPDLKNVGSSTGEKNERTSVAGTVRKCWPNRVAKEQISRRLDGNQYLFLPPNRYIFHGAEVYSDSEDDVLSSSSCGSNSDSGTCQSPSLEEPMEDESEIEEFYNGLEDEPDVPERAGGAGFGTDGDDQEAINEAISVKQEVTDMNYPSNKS
The test can be described thus: Trp mass spectrometry assay (SIRT1 activation). It counts as biochemical. As to conditions: Trp mass spectrometry assay; for Tryp AVG EC1.5 (μM): EC1.5 = concentration giving 150% activation of SIRT1; for Emax: percent maximum fold activation of SIRT1, read-out: Tryp % Fold Act. The essentials: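 Activation is expressed as EC1.5, the concentration raising activity 50% above DMSO control, and as maximum percent of control. Mass-spec readout was OAADPR or deacetylated Trp peptide after a formic-acid-quenched 25-min, 25 °C reaction: 10 nM bacterially expressed His-SIRT1, 0.5 μM acetyl-p53-derived peptide, 120 μM NAD+, pH 7.5 HEPES with […].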

In the case of `NCc1cccc(NC(=O)N2c3nc(-c4cccc(C(F)(F)F)c4)ccc3N3CC[C@H]2C3)c1` [Example 755], the “Tryp AVG EC1.5 (μM)” value was “B (EC1.5 1-25 μM)” and the Emax was ≥ 150%.

As for `NCCCCCC(=O)NCc1cccc(NC(=O)N2c3nc(-c4cccc(C(F)(F)F)c4)ccc3N3CCC[C@H]2C3)c1` [Example 756], the “Tryp AVG EC1.5 (μM)” value is on record as “A (EC1.5<1 μM)” and the Emax was ≥ 150%.

In the case of `NCc1cccc(NC(=O)N2c3nc(-c4cccc(C(F)(F)F)c4)ccc3N3CCC[C@H]2C3)c1` [Example 757], the “Tryp AVG EC1.5 (μM)” value is on record as “A (EC1.5<1 μM)” and the Emax was ≥ 150%.

Consider `NCCCCCC(=O)NCc1cccc(NC(=O)N2c3nc(-c4cccc(C(F)(F)F)c4)ccc3N3CC[C@H]2C3)c1` [Example 758], for which the “Tryp AVG EC1.5 (μM)” value is recorded as “A (EC1.5<1 μM)” and the Emax is ≥ 150%.

On to `CC(C)(C)OC(=O)NCCCc1cc(NC(=O)N2c3nc(-c4cccc(C(F)(F)F)c4)ccc3N3CC[C@H]2C3)cc(-c2cnco2)c1` [Example 759], for which the “Tryp AVG EC1.5 (μM)” value is reported as “B (EC1.5 1-25 μM)” and the Emax is ≥ 150%.

Consider `CC(C)(C)OC(=O)NCC#Cc1cc(NC(=O)N2c3nc(-c4cccc(C(F)(F)F)c4)ccc3N3CCC[C@H]2C3)cc(-c2cnco2)c1` [Example 760], for which the “Tryp AVG EC1.5 (μM)” value is “A (EC1.5<1 μM)” and the Emax is ≥ 150%.

With `FC(F)(F)c1cccc(-c2ccc3c(n2)N(C(=S)Nc2cccc(-c4cnco4)c2)[C@H]2CCN3C2)c1` [Example 763], the “Tryp AVG EC1.5 (μM)” value is “A (EC1.5<1 μM)” and the Emax is ≥ 150%.

`NCCCc1ccc(NC(=O)N2c3nc(-c4cccc(C(F)(F)F)c4)ccc3N3CC[C@H]2C3)cc1-c1cnco1` [Example 765]: the “Tryp AVG EC1.5 (μM)” value is “A (EC1.5<1 μM)” and the Emax was ≥ 150%.

In the case of `NCC#Cc1ccc(NC(=O)N2c3nc(-c4cccc(C(F)(F)F)c4)ccc3N3CC[C@H]2C3)cc1-c1cnco1` [Example 766], the “Tryp AVG EC1.5 (μM)” value is “A (EC1.5<1 μM)” and the Emax is ≥ 150%.

Consider `NCCCc1ccc(NC(=O)N2c3nc(-c4cccc(C(F)(F)F)c4)ccc3N3CCC[C@H]2C3)cc1-c1cnco1` [Example 767], for which the “Tryp AVG EC1.5 (μM)” value is “A (EC1.5<1 μM)” and the Emax was ≥ 150%.

In the case of `NCCCc1cc(NC(=O)N2c3nc(-c4cccc(C(F)(F)F)c4)ccc3N3CC[C@H]2C3)cc(-c2cnco2)c1` [Example 770], the “Tryp AVG EC1.5 (μM)” value is recorded as “A (EC1.5<1 μM)” and the Emax was ≥ 150%.

For the molecule `N=C(N)NCc1ncc(-c2cccc(NC(=O)N3c4nc(-c5cccc(C(F)(F)F)c5)ccc4N4CC[C@H]3C4)c2)o1` [Example 776], the “Tryp AVG EC1.5 (μM)” value was “A (EC1.5<1 μM)” and the Emax is ≥ 150%.

On to `N=C(N)NCc1ccc(NC(=O)N2c3nc(-c4cccc(C(F)(F)F)c4)ccc3N3CCC[C@H]2C3)cc1` [Example 777], for which the “Tryp AVG EC1.5 (μM)” value is recorded as “A (EC1.5<1 μM)” and the Emax was ≥ 150%.

For the molecule `C[C@@H](N)CS(=O)(=O)c1cccc(-c2ccc3c(n2)N(C(=O)Nc2cc(-c4ccnn4C)nc(-c4ccnn4C)c2)[C@H]2CCN3C2)c1` [Example 780], the “Tryp AVG EC1.5 (μM)” value is given as “A (EC1.5<1 μM)” and the Emax is ≥ 150%.

Take `O=C(Nc1ccccn1)N1c2cc(-c3cccc(C(F)(F)F)c3)ccc2N2CC[C@H]1C2` [Example 785]: the “Tryp AVG EC1.5 (μM)” value is “C (EC1.5>25 μM)” and the Emax was < 150%.

As to `O=C(Nc1cccc(-c2cnco2)c1)N1c2cc(-c3cccc(C(F)(F)F)c3)ccc2N2CC[C@H]1C2` [Example 786], the “Tryp AVG EC1.5 (μM)” value was “B (EC1.5 1-25 μM)” and the Emax was ≥ 150%.

Take `CC(C)(C)OC(=O)NCCNC(=N)c1ccc(NC(=O)N2c3nc(-c4cccc(C(F)(F)F)c4)ccc3N3CCC[C@H]2C3)cc1` [Example 788]: the “Tryp AVG EC1.5 (μM)” value is “A (EC1.5<1 μM)” and the Emax was ≥ 150%.

Regarding `CC(=O)NCc1ccc(NC(=O)N2c3nc(-c4cccc(C(F)(F)F)c4)ccc3N3CCC[C@H]2C3)cc1` [Example 790], the “Tryp AVG EC1.5 (μM)” value is given as “A (EC1.5<1 μM)” and the Emax is ≥ 150%.

As for `N=C(NCCN)c1ccc(NC(=O)N2c3nc(-c4cccc(C(F)(F)F)c4)ccc3N3CCC[C@H]2C3)cc1` [Example 792], the “Tryp AVG EC1.5 (μM)” value is listed as “A (EC1.5<1 μM)” and the Emax is ≥ 150%.

As for `CC(C)(C)OC(=O)NCc1ccc(NC(=O)N2c3nc(-c4cccc(C(F)(F)F)c4)ccc3N3CC[C@H]2C3)cc1` [Example 793], the “Tryp AVG EC1.5 (μM)” value is “B (EC1.5 1-25 μM)” and the Emax is ≥ 150%.

For `CC(C)(C)OC(=O)NCc1cccc(-c2ccc3c(n2)C(C(=O)Nc2ccncc2)[C@H]2CCN3C2)c1` (stereo partly shown) [Example 794], the “Tryp AVG EC1.5 (μM)” value was “B (EC1.5 1-25 μM)” and the Emax was ≥ 150%.

For the molecule `CC(C)(C)OC(=O)NCc1cccc(-c2ccc3c(n2)N(C(=O)Nc2ccncc2)[C@H]2CCCN3C2)c1` [Example 795], the “Tryp AVG EC1.5 (μM)” value was “B (EC1.5 1-25 μM)” and the Emax is ≥ 150%.

Take `O=C(NCc1ccc(NC(=O)N2c3nc(-c4cccc(C(F)(F)F)c4)ccc3N3CC[C@H]2C3)cc1)OC[C@@H]1[C@@H]2CCC#CCC[C@@H]21` [Example 796]: the “Tryp AVG EC1.5 (μM)” value is given as “B (EC1.5 1-25 μM)” and the Emax was ≥ 150%.

For `C#CCOc1cccc(NC(=O)N2c3nc(-c4cccc(C5(C(F)(F)F)N=N5)c4)ccc3N3CC[C@H]2C3)c1` [Example 797], the “Tryp AVG EC1.5 (μM)” value was “A (EC1.5<1 μM)” and the Emax was ≥ 150%.

Consider `C#CCCCNc1nccc(NC(=O)N2c3nc(-c4cccc(C5(C(F)(F)F)N=N5)c4)ccc3N3CC[C@H]2C3)n1` [Example 798], for which the “Tryp AVG EC1.5 (μM)” value is “A (EC1.5<1 μM)” and the Emax was ≥ 150%.

Take `[N-]=[N+]=NCC(=O)NCc1ccc(NC(=O)N2c3nc(-c4cccc(C(F)(F)F)c4)ccc3N3CC[C@H]2C3)cc1` [Example 799]: the “Tryp AVG EC1.5 (μM)” value is reported as “A (EC1.5<1 μM)” and the Emax is ≥ 150%.

For the molecule `C#CCOc1cc(-c2ccc3c(n2)N(C(=O)Nc2cccc(C4(C(F)(F)F)N=N4)c2)[C@H]2CCN3C2)cc(C(F)(F)F)c1` [Example 800], the “Tryp AVG EC1.5 (μM)” value is “C (EC1.5>25 μM)” and the Emax is < 150%.

As to `C#CCOc1cccc(NC(=O)N2c3nc(-c4ccc(C5(C(F)(F)F)N=N5)cc4)ccc3N3CC[C@H]2C3)c1` [Example 802], the “Tryp AVG EC1.5 (μM)” value was “B (EC1.5 1-25 μM)” and the Emax was ≥ 150%.

As for `C#Cc1ccc(NC(=O)N2c3nc(-c4cccc(C5(C(F)(F)F)N=N5)c4)ccc3N3CC[C@H]2C3)nc1` [Example 803], the “Tryp AVG EC1.5 (μM)” value is on record as “A (EC1.5<1 μM)” and the Emax is ≥ 150%.

`C#CCNc1nccc(NC(=O)N2c3nc(-c4cccc(C5(C(F)(F)F)N=N5)c4)ccc3N3CC[C@H]2C3)n1` [Example 804]: the “Tryp AVG EC1.5 (μM)” value is “A (EC1.5<1 μM)” and the Emax is ≥ 150%.

As to `C#CCNc1nccc(NC(=O)N2c3nc(-c4ccc(C5(C(F)(F)F)N=N5)cc4)ccc3N3CC[C@H]2C3)n1` [Example 805], the “Tryp AVG EC1.5 (μM)” value is “B (EC1.5 1-25 μM)” and the Emax is ≥ 150%.

With `[N-]=[N+]=NCc1cc(N=[N+]=[N-])cc(-c2ccc3c(n2)N(C(=O)Nc2ccc(F)cn2)[C@H]2CCN3C2)c1` [Example 806], the “Tryp AVG EC1.5 (μM)” value is reported as “A (EC1.5<1 μM)” and the Emax is ≥ 150%.

For the origin of these results see patent publication US9765075B2, “Substituted bridged urea analogs as sirtuin modulators” (GLAXOSMITHKLINE LLC, priority 2013, dated 2017).
